The values that follow come from ChEMBL document CHEMBL3046595, “Novel furoxan NO-donor pemetrexed derivatives: design, synthesis, and preliminary biological evaluation” (2009).

Common to all, as to assay type: functional
Assay [1] relates to A549. The assay can be described thus: Cytotoxicity against Homo sapiens (human) A549 cells at 1 x 10^-6 mol/L after 48 hr by MTT assay. The settings on record: A549, 48 h.
The subject of assay [2] is A549. Nature of the assay: Cytotoxicity against Homo sapiens (human) A549 cells at 10 x 10^-6 mol/L after 48 hr by MTT assay. To be noted: A549, 48 h. (Formazan colour is commonly taken as a measure of viable cells.)
Assay [3] concerns A549. The assay can be described thus: Cytotoxicity against Homo sapiens (human) A549 cells at 0.1 x 10^-6 mol/L after 48 hr by MTT assay. To be noted: A549, 48 h.
The subject of assay [4] is SMMC-7721. Nature of the assay: Cytotoxicity against Homo sapiens (human) SMMC7721 cells at 10 x 10^-6 mol/L after 48 hr by MTT assay. The settings on record: SMMC-7721, 48 h.
Assay [5] has as its system SMMC-7721. The assay can be described thus: Cytotoxicity against Homo sapiens (human) SMMC7721 cells at 1 x 10^-6 mol/L after 48 hr by MTT assay. To be noted: SMMC-7721, 48 h.
The test system of assay [6] is HL-60. The assay can be described thus: Cytotoxicity against Homo sapiens (human) HL60 cells at 10 x 10^-6 mol/L after 48 hr by MTT assay. The settings on record: HL-60, 48 h.
In assay [7] the test system is SMMC-7721. The assay can be described thus: Cytotoxicity against Homo sapiens (human) SMMC7721 cells at 0.1 x 10^-6 mol/L after 48 hr by MTT assay. To be noted: SMMC-7721, 48 h.
Assay [8] deals with HL-60. The assay can be described thus: Cytotoxicity against Homo sapiens (human) HL60 cells at 1 x 10^-6 mol/L after 48 hr by MTT assay. The settings on record: HL-60, 48 h.
The subject of assay [9] is HL-60. The assay can be described thus: Cytotoxicity against Homo sapiens (human) HL60 cells at 0.1 x 10^-6 mol/L after 48 hr by MTT assay. To be noted: HL-60, 48 h.
In assay [10] the test system is BGC-823. Nature of the assay: Cytotoxicity against Homo sapiens (human) BGC823 cells at 10 x 10^-6 mol/L after 48 hr by MTT assay. The settings on record: BGC-823, 48 h.
For assay [11], the system named is BGC-823. Nature of the assay: Cytotoxicity against Homo sapiens (human) BGC823 cells at 0.1 x 10^-6 mol/L after 48 hr by MTT assay. To be noted: BGC-823, 48 h.
Assay [12] concerns BGC-823. The assay can be described thus: Cytotoxicity against Homo sapiens (human) BGC823 cells at 1 x 10^-6 mol/L after 48 hr by MTT assay. The settings on record: BGC-823, 48 h.

Structures are written as SMILES.

Broadly, the inhibition is the relative decrease from the control value, in per cent. Consider `CCOC(=O)[C@H](CCC(=O)OCCCCCCOc1no[n+]([O-])c1S(=O)(=O)c1ccccc1)NC(=O)c1ccc(CCc2c[nH]c3[nH]c(N)nc(=O)c23)cc1`, for which the inhibition at 1 µM in [1] was less than 50%; in assay [5] it was greater than 80%; in assay [8], greater than 80%; in [12] it was 50%. Besides, the inhibition at 10 µM in [2], in assay [4], in [6] and in assay [10] was less than 50% each time. In addition, the inhibition at 0.1 µM in assay [3], in [7], in assay [9] and in [11] was less than 50% in each case.

In the case of `CCOC(=O)[C@H](CCC(=O)OC(C)COc1no[n+]([O-])c1S(=O)(=O)c1ccccc1)NC(=O)c1ccc(CCc2c[nH]c3[nH]c(N)nc(=O)c23)cc1` (stereo partly drawn), the inhibition at 1 µM in assay [1] is less than 50%; in assay [5] it was less than 50%; in [8], greater than 80%; in assay [12], greater than 80%. Further, the inhibition at 10 µM in [2], in [4], in assay [6] and in assay [10] was less than 50% throughout. The inhibition at 0.1 µM was less than 50% in assay [3], less than 50% in assay [7], greater than 80% in [9] and less than 50% in assay [11].

Turning to `CCOC(=O)[C@H](CCC(=O)OCCOCCOc1no[n+]([O-])c1S(=O)(=O)c1ccccc1)NC(=O)c1ccc(CCc2c[nH]c3[nH]c(N)nc(=O)c23)cc1`, the inhibition at 1 µM in assay [1] is less than 50%; in assay [5], less than 50%; in assay [8], greater than 80%; in assay [12], less than 50%. The inhibition at 0.1 µM in assay [3], in assay [7], in assay [9] and in assay [11] was less than 50% each time.

As to `CCOC(=O)[C@H](CCC(=O)OCC#CCOc1no[n+]([O-])c1S(=O)(=O)c1ccccc1)NC(=O)c1ccc(CCc2c[nH]c3[nH]c(N)nc(=O)c23)cc1`, the inhibition at 1 µM in [1] was less than 50%; in assay [5], 50%; in [8], greater than 80%; in assay [12] it was 50%. Besides, the inhibition at 10 µM in assay [2] was less than 50%; in assay [4] it was less than 50%; in assay [6], 50%. The inhibition at 0.1 µM in assay [3], in assay [7], in [9] and in [11] was less than 50% in each case.

Turning to `CCOC(=O)[C@H](CCC(=O)OCCCCCOc1no[n+]([O-])c1S(=O)(=O)c1ccccc1)NC(=O)c1ccc(CCc2c[nH]c3[nH]c(N)nc(=O)c23)cc1`, the inhibition at 1 µM was 50% in [1], less than 50% in assay [5], greater than 80% in assay [8] and 50% in [12]. Besides, the inhibition at 10 µM in [2], in assay [4], in assay [6] and in assay [10] was less than 50% throughout. In addition, the inhibition at 0.1 µM was less than 50% in [3], less than 50% in [7], greater than 80% in assay [9] and 50% in [11].

`CCOC(=O)[C@H](CCC(=O)OCCCCOc1no[n+]([O-])c1S(=O)(=O)c1ccccc1)NC(=O)c1ccc(CCc2c[nH]c3[nH]c(N)nc(=O)c23)cc1`: the inhibition at 1 µM was less than 50% in assay [1], greater than 80% in assay [5], 50% in assay [8] and greater than 80% in [12]. For the same compound, the inhibition at 10 µM in assay [2], in assay [4], in assay [6] and in assay [10] was less than 50% in each case. For the same compound, the inhibition at 0.1 µM was less than 50% in assay [3], less than 50% in assay [7], 50% in [9] and less than 50% in assay [11].

For `CCOC(=O)[C@H](CCC(=O)OCCOc1no[n+]([O-])c1S(=O)(=O)c1ccccc1)NC(=O)c1ccc(CCc2c[nH]c3[nH]c(N)nc(=O)c23)cc1`, the inhibition at 1 µM was less than 50% in [1], less than 50% in assay [5], 50% in assay [8] and less than 50% in [12]. Further, the inhibition at 10 µM in [2], in assay [4], in assay [6] and in [10] was less than 50% each time. Also, the inhibition at 0.1 µM in assay [3], in [7], in [9] and in [11] was less than 50% in each case.

With `Nc1nc2[nH]cc(CCc3ccc(C(=O)N[C@@H](CCC(=O)O)C(=O)O)cc3)c2c(=O)[nH]1` [PEMETREXED DISODIUM], the inhibition at 1 µM is less than 50% in [1], less than 50% in [5], greater than 80% in assay [8] and less than 50% in assay [12]. Moreover, the inhibition at 10 µM was less than 50% in assay [2], less than 50% in assay [4], greater than 80% in assay [6] and 50% in assay [10]. Also, the inhibition at 0.1 µM in [3] is less than 50%; in assay [7], less than 50%; in assay [9], 50%; in [11] it was less than 50%.

Take `CCOC(=O)[C@H](CCC(=O)OCCCOc1no[n+]([O-])c1S(=O)(=O)c1ccccc1)NC(=O)c1ccc(CCc2c[nH]c3[nH]c(N)nc(=O)c23)cc1`: the inhibition at 1 µM was less than 50% in [1], less than 50% in assay [5], 50% in [8] and less than 50% in [12]. For the same compound, the inhibition at 10 µM in [2], in assay [4], in [6] and in assay [10] was less than 50% throughout. For the same compound, the inhibition at 0.1 µM in [3], in assay [7], in [9] and in [11] was less than 50% in each case.
